Patent publication US7935687B2, “Methods for treating spinal muscular atrophy using tetracycline compounds” (Paratek Pharmaceuticals, Inc., priority 2007, dated 2011)

Experiments:
SMN2 mRNA = assay: In vitro cell-free splicing assay for inclusion of exon 7; type: biochemical; details: HeLa cell nuclear extract, 30° C., 3 hours
Procedure, shortened: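 ^32P-labelled SMN2 minigene pre-mRNA (exon 6 to part of exon 8; 10 fmol) spliced 3 h at 30 °C in 30% HeLa nuclear extract with 0.5 mM ATP, 1.56 mM MgCl2, pH 7.4, plus compound or buffer. Exon 7 inclusion quantified by denaturing PAGE and phosphorimaging. Emax is maximal % inclusion and Cmax the lowest concentration (μM) reaching it, reported as binned grades.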

[1] = Brain-penetrating ability, brain:plasma ratio; type: in vivo, Male CD1 mice; details: iv; for Ratio of Brain to Plasma Levels (at T = 3 hours, %): mouse, in vivo, 5 mg/kg
Method: Male CD1 mice were administered various tetracycline compounds (i.v. at a dose of 5 mg/kg). After 15 minutes, 1 hour and 3 hours post-dose, 3 mice were sacrificed, exsanguinated, and brains harvested and snap frozen. Blood was centrifuged and the plasma removed and frozen.

S. aureus (SA RN450) = assay: Antibacterial MIC, gram positive; type: cell-based; details: CLSI methodology, 35° C., 18-24 hours
E. coli (EC D1-209) = assay: Antibacterial MIC, gram negative; type: cell-based; details: CLSI methodology, 35° C., 18-24 hours
[2] = tested on: 3813 SMA patient-derived fibroblast cells; assay: In vitro gems assay; type: cell-based, Human; details: 1 mM, SMA patient line
Method: The following example illustrates how tetracycline compound of the invention increase gems in vitro. A glass cover slide was added into each well of 6 well plates and 1×10^4 cells (3813 SMA patient-derived fibroblast cells or 3814 unaffected family member-derived fibroblast cells) in 2 mL were added. After approximately 6 hours, the medium was changed and the desired compound was added to the appropriate well at indicated concentrations. After 12 hours, the medium was changed and the desired compound was added to the appropriate well again. After 24 hours, one set of slides was fixed and the medium was changed and the desired compound was added to the appropriate well again. After 36 hours, the medium was changed and the desired compound was added to the appropriate well again. Another set of cells were fixed on the slides at 48 hours.
Immunofluorescence staining of the cells was performed by washing the cells 2 times with PBS (phosphate buffered saline) and fixing the cells on slides in 4% paraformaldehyde for 10 minutes on ice. The cells were washed 3 times for 5 minutes with PBS, then were permeabilized on the cover slip with 0.2% TritonX, 0.5% BSA in PBS and incubated for 5 minutes on ice. […] The cells were again washed 2 times for five minutes with PBS, mounted on slides with Molecular Probes Prolong Antifade kit, dried and analyzed with Axioskop widefield fluourescence microscope.

Question: For `CN(C)C1C(O)=C(C(N)=O)C(=O)C2(O)C(O)=C3C(=O)c4c(O)ccc(-c5cccc(CCCN6CCCCC6)c5)c4CC3CC12` (stereo not drawn) [BN], which “Cmax (lowest compound concentration at which the maximum exon 7 inclusion occurs)” value (SMN2 mRNA) is on record?
Answer: *** (concentrations of less than 10 μM)

Question: What about the “Emax (maximum percentage exon 7 inclusion observed)” value (SMN2 mRNA) of the same molecule?
Answer: *** (values greater than 20%)

Question: What about the “Ratio of Brain to Plasma Levels (at T = 3 hours, %)” value [1] of the same molecule?
Answer: 41.6%

Question: What about the “MIC Gram Positive (SA RN450)” value (S. aureus (SA RN450)) of the same molecule?
Answer: *** (Good antibacterial activity (e.g., less than about 4 μg/mL))

Question: What about the “MIC Gram Negative (EC D1-209)” value (E. coli (EC D1-209)) of the same molecule?
Answer: ** (modest antibacterial activity (between about 4 and 8 μg/mL))

Question: With `COCCN(C)CC(=O)c1ccc(O)c2c1CC1CC3C(N(C)C)C(O)=C(C(N)=O)C(=O)C3(O)C(O)=C1C2=O` (stereo not drawn) [BO] as the molecule, how does the “Ratio of Brain to Plasma Levels (at T = 3 hours, %)” value [1] read?
Answer: 50.7%

Question: And the “MIC Gram Positive (SA RN450)” value (S. aureus (SA RN450))?
Answer: *** (Good antibacterial activity (e.g., less than about 4 μg/mL))

Question: What about the “MIC Gram Negative (EC D1-209)” value (E. coli (EC D1-209)) of the same molecule?
Answer: * (weak antibacterial activity (greater than about 8 μg/mL))

Question: With `CN(C)c1ccc(O)c2c1C[C@H]1C[C@H]3[C@H](N(C)C)C(O)=C(C(N)=O)C(=O)[C@@]3(O)C(O)=C1C2=O` [Minocycline, minocycline, reference compound] as the molecule, how does the Kp at 3 h ([1]; male, CD1, mouse, brain and plasma, i.v. 5 mg/kg, 3 hours post-dose, read-out: Ratio of Brain to Plasma Levels (at T = 3 hours, %)) read?
Answer: 1.28

Question: What does the source list for `CN(C)C1C(O)=C(C(N)=O)C(=O)C2(O)C(O)=C3C(=O)c4c(O)ccc(-c5cccc(C(=O)NCCN6CCCCC6)c5)c4CC3CC12` (stereo not drawn) [U]?
Answer: Cmax (lowest compound concentration at which the maximum exon 7 inclusion occurs) (SMN2 mRNA): ** (concentrations between 40 and 10 μM); Emax (maximum percentage exon 7 inclusion observed) (SMN2 mRNA): ** (values of 10-20%); MIC Gram Positive (SA RN450) (S. aureus (SA RN450)): *** (Good antibacterial activity (e.g., less than about 4 μg/mL)); MIC Gram Negative (EC D1-209) (E. coli (EC D1-209)): ** (modest antibacterial activity (between about 4 and 8 μg/mL))

Question: Which “Cmax (lowest compound concentration at which the maximum exon 7 inclusion occurs)” value (SMN2 mRNA) does the source give for `CN(C)C1C(O)=C(C(N)=O)C(=O)C2(O)C(O)=C3C(=O)c4c(O)ccc(-c5cccc(C(=O)NCc6ccco6)c5)c4CC3CC12` (stereo not drawn) [Y] here?
Answer: * (concentrations of greater than 40 μM)

Question: And the “Emax (maximum percentage exon 7 inclusion observed)” value (SMN2 mRNA)?
Answer: ** (values of 10-20%)

Question: And the “MIC Gram Positive (SA RN450)” value (S. aureus (SA RN450))?
Answer: *** (Good antibacterial activity (e.g., less than about 4 μg/mL))

Question: And the “MIC Gram Negative (EC D1-209)” value (E. coli (EC D1-209))?
Answer: * (weak antibacterial activity (greater than about 8 μg/mL))

Question: For `CCCC(CCC)C(=O)O` [valproic acid], which “increase in the number of gems/100 cells” value [2] is on record?
Answer: 1.7 fold
